3 molecules from US9233948B2, “Pharmaceutical compositions comprising N-(4-(2-amino-3-chloropyridin-4-yloxy)-3-fluorophenyl)-4-ethoxy-1-(4-fluorophenyl)-2-oxo-1,2-dihydropyridine-3-carboxamide” (Bristol-Myers Squibb Company, priority 2010, dated 2016) can be followed below.

Broadly, the bioavailability is the share of a dose that reaches the circulation, judged against a reference dose that is usually intravenous. In general, AUC refers to concentration integrated over time. For orientation: Cmax means the maximum level reached in the sampled fluid or tissue. What is called Tmax is the time from dosing to the highest level. As a reminder, the solubility is the dissolved amount per volume that the medium holds.

Converted amounts (≈) assume the structure as drawn. Where two headings read alike, the source gives them in different places.

The nature of data set [1]: Chemical stability of tablets after accelerated storage. It is filed as physicochemical. As to conditions: control. How it is done:
The chemical stability of the 25 mg tablet of Example 9 was evaluated after accelerated storage at various temperatures and humidity conditions for periods up to one month.

A short description of data set [2]: Aqueous solubility of crystalline forms of Compound (I). It is filed as physicochemical. The text has this: However, in the presence of an aqueous medium, the neat crystalline Form N-1 can convert to the crystalline sesquihydrate Form H1.5-2. […] One method to increase the bioavailability of compounds in a suspension is to increase the surface area of the particles in contact with the aqueous medium, which can be achieved by decreasing the particle size. However, reductions in particle size below diameters of approximately one micron requires specialized milling and dispersion techniques to prepare, stabilize, and sterilize the sub-micron suspensions. Desired is an aqueous suspension of Compound (I) in Form N-1 that has sufficient resistance to conversion to the sesquihydrate Form H1.5-2 to allow oral administration.

Data set [3] is described as follows: Chemical and physical stability testing of Form N-1. It is filed as physicochemical. As to conditions: several different temperature and humidity conditions.
A short description of data set [4]: Pharmacokinetics of capsules of Form N-1 with two particle sizes. More on the design: species or system dogs. The conditions noted are these: dog, in vivo, 10 mg/kg, 10 mpk; for bioavailability: oral, compared to IV data, read-out: Absolute Bioavailability; for AUC / Cmax / Tmax: po. How it is done:
The microsuspension of Example 7, tablets, and hard gelatin capsules containing the phosphate salt of Compound (I) were dosed orally at 10 mg/kg in dogs pretreated with pentagastrin. The resulting exposures were compared to an absolute bioavailability calculated by comparison to an IV dose in the same animals. Capsules were prepared comprising Compound (I), Form N-1 with two different particle sizes.

[5] abbreviates: Particle Diameter D90 10 micron.
[6] abbreviates: Particle Diameter D90 70 micron.

Take `CCOc1ccn(-c2ccc(F)cc2)c(=O)c1C(=O)Nc1ccc(Oc2ccnc(N)c2Cl)c(F)c1` [Compound (I), N-(4-(2-Amino-3-chloropyridin-4-yloxy)-3-fluorophenyl)-4-ethoxy-1-(4-fluorophenyl)-2-oxo-1,2-dihydropyridine-3-carboxamide]: the “Total Impurity” value in data set [1] came out at 0.13%.
For the molecule `CCOc1ccn(-c2ccc(F)cc2)c(=O)c1C(=O)Nc1ccc(Oc2ccnc(N)c2Cl)c(F)c1` [Form H1.5-2, N-(4-(2-Amino-3-chloropyridin-4-yloxy)-3-fluorophenyl)-4-ethoxy-1-(4-fluorophenyl)-2-oxo-1,2-dihydropyridine-3-carboxamide], in data set [2], the “aqueous solubility compared to Form N-1” value is on record as “lower aqueous solubility compared to Form N-1”.
With `CCOc1ccn(-c2ccc(F)cc2)c(=O)c1C(=O)Nc1ccc(Oc2ccnc(N)c2Cl)c(F)c1` [Form N-1, N-(4-(2-Amino-3-chloropyridin-4-yloxy)-3-fluorophenyl)-4-ethoxy-1-(4-fluorophenyl)-2-oxo-1,2-dihydropyridine-3-carboxamide], in data set [3], the “chemical and physical stability” value is “suitable chemical and physical stability”. In data set [4] (setting [5]), the bioavailability was around 32%, the AUC turned out to be 90.2 ± 5.5 µM·h, the highest concentration (Cmax) was found to be 15 ± 2.7 µM and the Tmax is 6 h. Also, in data set [4] (setting [6]), the bioavailability worked out at 12%, the exposure (AUC) was 33.3 ± 8.4 µM·h, the peak level (Cmax) was 6.9 ± 1.1 µM and the time to peak (Tmax) was 2 h. The molecule also yielded a solubility in data set [2] (aqueous medium, aqueous buffer, pH 7.4 and room temperature) of around 0.25 µg/mL (≈ 0.487 µM).
